Columns and labels:
[1] = test system: HBV DNA of HepG2-NTCP cells; assay: In vitro anti-HBV activity in HepG2-NTCP cells: HBV DNA in culture supernatant by qPCR; type: cell-based
Method: (§1) On day 0, HepG2-NTCP cells were plated into 48-well plates (7.5×10^4 cells/well). On day 1, change to medium containing 2% DMSO.
(§2) On day 2, the cells were pretreated by adding compounds for 1 hour, and then HepG2-NTCP cells were infected by the addition of […] (compounds were added simultaneously). The test compound was diluted to three concentrations for single treatment, one concentration for combined treatment. Testing in duplicate. The control compound is ETV. See Table 2 for compound concentrations.
(§3) On days 3, 5 and 7, the medium was replaced with fresh medium containing compounds.
(§4) On the ninth day, the supernatant was collected, which was then detected by ELISA for levels of HBeAg and HbsAg, and by qPCR for level of HBV DNA. Meanwhile, detecting cell viability by CellTiter-Glo. Collecting cells for cryopreservation (for spare).
1) Detecting the level of HBV DNA in cell culture supernatant by qPCR
According to the instructions of QIAamp 96 DNA Blood Kit, extracting DNA from cell culture supernatant. The level of HBV DNA was detected by qPCR with HBV-specific primers. PCR reaction: 95° C., 10 min; 95° C., 15 sec, 60° C., 1 min, 40 cycles.
Inhibition rate of HBV DNA (%)=(1-HBV copy number of sample compound group/HBV copy number of DMSO group)×100%

[2] = test system: HBsAg of HepG2-NTCP cells; assay: In vitro anti-HBV activity in HepG2-NTCP cells: HBsAg in culture supernatant by ELISA; type: cell-based
Method: as §1, §2, §3, §4
(§5) 2) Detecting the levels of HBeAg and HBsAg in cell culture supernatant by ELISA. The test was performed in accordance with the instructions of the kit, and was briefly described as follows:
(§6) Taking respective 50 μl of standard, sample and control compound, and adding to the detection plate, then adding 50 μl of enzyme conjugate to each well, incubating at 37° C. for 60 minutes, washing the plate with washing solution, blotting dry, then adding 50 μl of premixed luminescent substrate, and incubating at room temperature in the dark for 10 minutes, and finally measuring luminescence values by a microplate reader.
(§7) Inhibition rate of Hbe/sAg (%)=(1-HBe/sAg level of sample compound/HBe/sAg level of DMSO control group)×100%

[3] = test system: HBeAg in HepG2-NTCP cells; assay: microbe, parasite or virus in culture; type: cell-based, HBV
Method: as §1, §2, §3, §4, §5, §6, §7

[4] = test system: HepG2-NTCP cells; assay: Cell viability assay by CellTiter-Glo; type: cell-based; details: different concentrations, FIG. 7
Method: as §4
3) Cell Viability Assay by CellTiter-Glo Cell
The cell viability was determined according to the instructions of the CellTiter-Glo kit. The assay is briefly described as follows: Collecting the cell culture supernatant, adding CellTiter-Glo (1:1 dilution of medium) to each well, incubating at room temperature for 10 minutes, and measuring luminescence values with a microplate reader.

[5] = test system: AAV-HBV mouse models; assay: In vivo experiments in AAV-HBV mouse models: plasma HBV DNA, HBsAg, HBeAg; details: AAV-HBV mice, 60mpk by gavage once a day, 90-day period of administration
Method: Experimental method: AAV-HBV mouse models were administered by gavage, once a day; the compound group (G10 HD042, i.e., celecoxib): the dose of celecoxib was 60mpk; and the blank group (G1 vehicle control group): 10% DMSO+40% PEG400+5% Tween 80+45% Saline (V/V) solution.
During the 90-day period of administration, blood was collected on the 6th, 13th, 20th, 27th, 34th, 41st, 48th, 55th, 62nd, 69th, […], 83rd, and 90th days, respectively, and the plasma levels of HBV DNA, HBsAg, HBeAg and anti-HBs were tested with the results shown in FIGS. 4 to 5.

[6] = test system: HBeAg and HBsAg; details: as reported in the literature; cited from earlier work
[7] = test system: hepatitis B virus (HBV); details: compared with TDF; cited from earlier work
[8] = compared with TDF; cited from earlier work
[9] = repeated parallel experiments, FIG. 6
[10] = Hepatitis B virus, 216 h, read-out: HBsAg inhibition rate
[11] = Hepatitis B virus, 216 h, read-out: HBeAg inhibition rate

Cc1ccc(-c2cc(C(F)(F)F)nn2-c2ccc(S(N)(=O)=O)cc2)cc1 [compound of formula 1, celecoxib]
inhibition at 1 µM ([1]; Hepatitis B virus, 216 h, 1 μM compound of formula 1, HepG2-NTCP cells, supernatant day 9, read-out: HBV DNA inhibition rate): 7.59%
inhibition at 10 µM ([1]; Hepatitis B virus, 216 h, 10 μM compound of formula 1, HepG2-NTCP cells, supernatant day 9, read-out: HBV DNA inhibition rate): 49.2%
inhibition at 20 µM ([1]; Hepatitis B virus, 216 h, 20 μM compound of formula 1, HepG2-NTCP cells, supernatant day 9, read-out: HBV DNA inhibition rate): 73%
inhibitory effect on HBV DNA, repeated cell experiments [1, 9]: significant dose-dependent manner
inhibition at 1 µM [2, 10]: 21.5%
inhibition at 10 µM [2, 10]: -7.65%
inhibition at 20 µM [2, 10]: 46.1%
inhibitory effect on HBsAg, repeated cell experiments [2, 9]: significant dose-dependent manner
inhibition at 1 µM [3, 11]: 18%
inhibition at 10 µM [3, 11]: 50.4%
inhibition at 20 µM [3, 11]: 78.1%
inhibitory effect on HBeAg, repeated cell experiments [3, 9]: significant dose-dependent manner
cytotoxicity on HepG2-NTCP cells [4]: an effect on the virus rather than cytotoxicity
reduction of plasma level of HBV DNA [5]: 0.72 Log 10 copy/mL
reduction of plasma level of HBeAg [5]: 0.34 Log 10 PEIU/mL
reduction of plasma level of HBsAg [5]: 0.76 Log 10 IU/mL

C=C1C(CO)C(O)CC1n1cnc2c(=O)nc(N)[nH]c21 [ETV, 2-amino-1,9-dihydro-9-[(1S,3R,4S)-4-hydroxy-3-(hydroxymethyl)-2-methylenecyclopentane]-6H-purin-6-one]
inhibition at 0.0001 µM ([1]; Hepatitis B virus, 216 h, 0.1 nM ETV, HepG2-NTCP cells, supernatant day 9, read-out: HBV DNA inhibition rate): 44.7%
inhibition at 0.0001 µM [2, 10]: 1.22%
inhibition at 0.0001 µM [3, 11]: -1.35%
effect on reducing HBeAg and HBsAg [6]: little effect

CC(C)OC(=O)[C@H](C)N[P@](=O)(CO[C@H](C)Cn1cnc2c(N)ncnc21)Oc1ccccc1 [Tenofovir alafenamide, Tenofovir Alafenamide]
antiviral activity relative to tenofovir disoproxil TDF [7]: 10 times
half-life relative to tenofovir disoproxil TDF [8]: 225 times
stability in plasma relative to tenofovir disoproxil TDF [8]: 200 times

From US20230158000A1, “PHARMACEUTICAL COMPOSITION FOR TREATING OR PREVENTING VIRAL HEPATITIS AND THE USE THEREOF” (Holy Haid Lab Corp, priority 2020, published 2023)
